Tests used:
[1] = system: isolierte linke Meerschweinchenvorhof; assay: Isolated, electrically stimulated left guinea pig atrium: refractory period, contraction force and excitability; assay type: cell-based, Meerschweinchen; settings: for Hemmung der Kontraktionskraft / Verlängerung der RP / inhibition at 10 µM / percent prolongation of refractory period at 10 µM: concentration not given; for ERP / EKK: ratio of prolongation of RP to inhibition of contraction force; for inhibition at 100 µM / inhibition at 10 µM: Cavia porcellus, read-out: Hemmung der Kontraktionskraft
Source text: Für das Screening wurde […]. Die Vorhöfe wurden durch Rechteckimpulse ( ∼ 3 msec) mit einer Basisfrequenz von 2 Hz […]. Nun wurde mittels eines Extrastimulus, dessen […] und ohne Verbindung bestimmt. […] Um zwischen Na-antagonistischen und anderen Wirkungen unterscheiden zu […] RP, die Kontraktionskraft und die Erregbarkeit des […] untersucht.

[2] = system: teilweise depolarisierten Papillarmuskel; assay: Partially depolarised papillary muscle (extracellular potassium raised about 4-fold): mechanism of the negative inotropic effect; assay type: cell-based; settings: partially depolarised membranes; cause of the negative inotropic effect; result in words
Source text: Weitere Untersuchungen wurden am teilweise depolarisierten Papillarmuskel durchgeführt, um zwischen der negativ inotropen Wirkung, welche auf Blockade der schnellen Na⁺-Kanälchen und einer, die auf anderen Mechanismen beruht, zu unterscheiden. Im Versuch wurde die teilweise Depolarisation der Herzmuskelzellmembran durch Erhöhung der extrazellulären Kalium-Konzentration auf das ca. 4-fache erreicht.

[3] = 10 µM according to b47, atrium stimulated at 2 Hz, mean ± spread
[4] = 100 µM, atrium stimulated at 2 Hz, mean ± spread, read-out: Verlängerung der RP
[5] = 100 µM, atrium stimulated at 2 Hz, mean ± spread
[6] = 10 µM according to b47, atrium stimulated at 2 Hz, mean ± spread, read-out: Verlängerung der RP

| Compound | Hemmung der Kontraktionskraft [1, 3] | Verlängerung der RP [1, 3] | ERP / EKK ([1]; 10 µM according to b47) | inhibition at 100 µM [1, 5] [%] | inhibition at 10 µM [1, 3] [%] | percent prolongation of refractory period at 10 µM [1, 6] [%] | other results |
| --- | --- | --- | --- | --- | --- | --- | --- |
| 1-[3-(2-Hydroxy-3-(4-methyl)-1-piperidinyl)-propoxy)-4-methyl-2-thienyl]-3-phenyl-1-propanon-hydrochlorid [LG 84-6-11] | 59 ± 3,3% | 157 ± 10,0% | 2,7 |  |  |  |  |
| 1-[4-Methyl-3-(2-hydroxy-3-sek.butylaminopropoxy)-2-thienyl]-3-phenyl-1-propanon-chlorhydrat [LG 84-6-08] | 65 ± 4,0% | 129 ± 11,0% | 2,0 |  |  |  |  |
| C=C[C@H]1CN2CC[C@H]1C[C@@H]2[C@@H](O)c1ccnc2ccc(OC)cc12 [Chinidin, reference compound] |  |  |  | 77 ± 4 |  |  | activation at 100 µM [1, 4]: > 161% |
| CCC(C)(C)NCC(O)COc1c(C)csc1C(=O)CCc1ccccc1.Cl (stereo not drawn) [LG 84-6-07, 1-[3-(2-Hydroxy-3-tert.pentylaminopropoxy)-4-methyl-2-thienyl]-3-phenyl-1-propanon-hydrochlorid] |  |  | 1,3 |  | 52 ± 4 | 66 ± 13 | Verhältnis zwischen der Verlängerung der Refraktärperiode und der gleichzeitig beobachteten Kontraktionskraftsenkung ([1]; comparison among the tested antiarrhythmics, result in words): am größten; Dosen für Verlängerung der Refraktärperiode gegenüber Senkung der Kontraktionskraft ([1]; doses for prolonging the refractory period compared with doses for lowering contraction force, result in words): mit wesentlich kleineren Dosen erzielt; Erregbarkeit des Vorhofes ([1]; result in words): Verminderung der Erregbarkeit des Vorhofes; negativ incorope Komponente [2]: nur durch den Na⁺-Antagonismus hervogerufen |
| Cc1csc(C(=O)CCc2ccccc2)c1OCC(O)CNCC(C)(C)C.Cl (stereo not drawn) [LG 84-6-09, 1-[3-(2-Hydroxy-3-(2,2-dimethylpropylamino)-propoxy)-4-methyl-2-thienyl]-3-phenyl-1-propanon-hydrochlorid] |  |  | 3,0 |  | 37 ± 4.5 | 112 ± 18 |  |
| CCN(CC)CC(=O)Nc1c(C)cccc1C [Lidocain, reference compound] |  |  |  | 17 ± 5 |  |  | percent prolongation of refractory period at 100 µM [1, 4]: 63 ± 6%; ERP / EKK ([1]; 100 µM): 3,7 |

From EP0233173A1, “1-[3-(2-Hydroxy-3-alkylamino-propoxy)-2-thienyl]-3-phenyl-1-propanones and their acid addition salts, process for their preparation and pharmaceutical compositions containing them” (Laevosan-Gesellschaft m.b.H., priority 1986, dated 1987)
